# According to patent US10238688B2, “Combination therapies for bladder cancer” (GENEDIA BIOTECH CO. LTD., priority 2015, dated 2019):
# How the values were obtained:
# Assay type in all cases: cell-based, human
# [1] = test system: T24; assay: MTT cell survival / IC50, T24 cells
# Protocol: (§1) The clinical grade of the chemotherapeutics (NCI Dictionary of Cancer Terms) was provided by the First Affiliated Hospital of Harbin Medical University: Pirarubicin (Pi, Wanle, Shenzhen), Paclitaxel (Pa, Taiji, Sichuan), Adriamycin (Ad, Pfizer, Jiangsu), Epirubicin Hydrochloride (EH, Haizheng, Zhejiang), Hydroxycamptothecin (Hy, Lishizhen, Hubei), Cisplatin (Ci, Haosen, Jiangsu), Gemcitabine (Ge, Haosen, Jiangsu) and Mitomycin (Mi, Haizheng, Zhejiang). The drug induced cell death was determined by a thiazolyl […] (MTT, 490 nm reading) based cell proliferation assay in the cultured cells following treatment by various concentrations of drugs for 72 hours. The relative chemoresistance to each drug of all cell lines was calculated with the lowest IC50 as a reference. The overall chemoresistance of each cell line was described as “chemoresistance index”, the numerator of the total relative IC50 to all the drugs over the number of drugs to rank the overall resistance state of each cell line to the six chemotherapeutics collectively.
# (§2) The relative IC50 (fold) of each drug of all nine cell lines was normalized to the lowest IC50 in the most sensitive cell line (FIG. 2G), to describe the single drug resistance of cell lines. The overall chemoresistance of each cell line, a “chemoresistance index” (the numerator of the total relative IC50 over the number of drugs) (FIG. 2G) were calculated to rank the overall resistance state of each cell line to this six chemotherapeutics.
# (§3) Twenty six-drug combinations at the indicated doses were initially generated through a random number generator (using MATLAB MathWorks©, Natick, Mass., U.S.) (The upper half of Table 1). The cell survival (% over the not drug control) of treated cells was determined and then used for a calculation of the average cumulative cell survival (%, ACS: the sum of cell survival (%) per combination divided by the number of cell lines tested). ACS<30% was used to separate the effective from the not-effective combinations.
# [2] = test system: UM-UC-3; assay: MTT cell survival / IC50, UM-UC-3 cells
# Protocol: as §1, §2, §3
# [3] = test system: MAPK/ERK pathway; assay: Cignal Finder dual-luciferase pathway reporter, MAPK/ERK; conditions: for Relative activity, MAPK/ERK reporter: luc/Renluc relative to negative control reporter, single drug at 4 folds vs EH/Ci/Mi combination
# Protocol: (§4) The pathway analysis was performed with Qiagen's Cignal Finder Pathway Reporter Array systems according to the manufacturer's instructions. The pathway-focused dual-luciferase reporter construct was a mixture of an inducible transcription factor responsive firefly luciferase reporter and constitutively expressing renilla construct. Transcriptional response element (TRE) sequence response elements to each specific transcriptional factor triggered by the different signaling pathways are positioned before the TATA box of firefly luciferase reporter gene. The extent of activity of the reporter reflects the level of activity of the particular signaling pathway. CMV controlled renilla expression vector is co-transfected into the cell as an internal control. Non-inducible reporter construct that lacks the transcriptional factor binding sequence and could not be induced by any transcription factors is used as a negative control. Cells transfected with CMV directed firefly luciferase reporter gene serve as a positive control. Briefly, cells seeded in 6-well plates were transfected with Cignal finder pathway arrays according to the manufacturer's instructions (Qiagen). Then cells were seeded onto 96-well plates. Ci (6000 ng/mL), Mi (800 ng/mL), or EH (1000 ng/mL) and Ci/Mi/EH combination (Ci, 1500 ng/mL, Mi, 800 ng/mL and EH, 1000 ng/m L) were then added to the cells 24 h post-transfection. After 6 h of incubation with the different drugs at 37° C., cells were lysed and a dual luciferase assay (for firefly and renilla luciferase) was performed using a PromegaGloMax 20/20 illuminometer. The firefly luciferase activities were normalized over the renilla luciferase activities after background activity determined by luciferase activities of negative controls was subtracted. A triple test of cell survival under these drug doses was also performed by MTT assay following 18 h incubation at 37° C. […]
# [4] = test system: J-82; assay: MTT cell survival / IC50, J-82 cells; conditions: J82; Table S3; ng/ml: Pi 40, Pa 160, EH 250, Ci 1500, Mi 200; 1=Ci/Mi, 2=EH/Ci/Mi, 3=Pa/Ci/Mi, 4=Pi/Ci/Mi
# Protocol: as §1, §2, §3
# [5] = test system: Heat Shock pathway; assay: Cignal Finder dual-luciferase pathway reporter, Heat Shock; set-up: key to Relative activity, Heat Shock reporter: firefly/renilla ratio, background (negative control) subtracted; conditions: for Relative activity, Heat Shock reporter: luc/Renluc relative to negative control reporter, single drug at 4 folds vs EH/Ci/Mi combination
# Protocol: as §4, with “Ci (6000 ng/mL), Mi (800 ng/mL), or EH (1000 ng/mL) and Ci/Mi/EH combination (Ci, 1500 ng/mL, Mi, 800 ng/mL and EH, 1000 ng/m L) were then added to the cells 24 h post-transfection.” left out
smiles,measurement,setting,value
"COC12C(COC(N)=O)C3=C(C(=O)C(C)=C(N)C3=O)N1CC1NC12 (centres unmarked) [Mi, [6-Amino-8a-methoxy-5-methyl-4,7-dioxo-1,1a,2,4,7,8,8a,8b-octahydroazireno [2′,3′:3,4]pyrrolo[1,2-a]indol-8-yl]methyl carbamate]",Cell survival (%),"[1]; Table S3, ng/ml: Pi 40, Pa 160, EH 250, Ci 1500, Mi 200, 1=Ci/Mi, 2=EH/Ci/Mi, 3=Pa/Ci/Mi, 4=Pi/Ci/Mi",51.34%
same,Single drug 4X Cell Survival (%),"[1]; ng/ml: EH 1000, Ci 6000, Mi 800, Pi 160, Pa 640, Ge 20, EH/Ci/Mi regimen",19.72%
same,Cell survival (%),"[2]; UM-UC-3, Table S3, ng/ml: Pi 40, Pa 160, EH 250, Ci 1500, Mi 200, 1=Ci/Mi, 2=EH/Ci/Mi, 3=Pa/Ci/Mi, 4=Pi/Ci/Mi",66.2%
same,Single drug 4X Cell Survival (%),"[2]; UM-UC-3, ng/ml: EH 1000, Ci 6000, Mi 800, Pi 160, Pa 640, Ge 20, EH/Ci/Mi regimen",54.74%
same,ACS (%),"[2]; UM-UC-3 cells, Table 4 (B)",54.71%
same,Cell survival 72 hours,"[2]; Um-Uc-3 cells, Table 4 (A)",54.71%
same,"relative drug trigged pathway activity over the no-drug level, MAPK/ERK",[3]; 5637 cells,3.73 fold
same,"Relative activity, MAPK/ERK reporter",[3]; 5637 cells,194.59
same,"relative drug trigged pathway activity over the no-drug level, MAPK/ERK",[3]; Biu87 cells,2.04 fold
same,"Relative activity, MAPK/ERK reporter",[3]; Biu87 cells,1001.57
same,"relative drug trigged pathway activity over the no-drug level, MAPK/ERK",[3]; H-bc cells,0.45 fold
same,"Relative activity, MAPK/ERK reporter",[3]; H-bc cells,59.07
same,"digitalized pathway activity, MAPK/ERK",[3]; SV-HUC-1 cells,0 (null (0) if neither of the above holds)
same,"relative drug trigged pathway activity over the no-drug level, MAPK/ERK",[3]; SV-HUC-1 cells,1.42 fold
same,"Relative activity, MAPK/ERK reporter",[3]; SV-HUC-1 cells,335.00
same,"digitalized pathway activity, MAPK/ERK",[3]; UM-UC-3 cells,0 (null (0) if neither of the above holds)
same,"Relative activity, MAPK/ERK reporter",[3]; UM-UC-3 cells,151.35
same,"relative drug trigged pathway activity over the no-drug level, MAPK/ERK",[3]; Um-Uc-3 cells,1.06 fold
same,Cell survival (%),[4],48.38%
same,"digitalized pathway activity, Heat Shock",[5]; 5637 cells,0 (null (0) if neither of the above holds)
same,"relative drug trigged pathway activity over the no-drug level, Heat Shock",[5]; 5637 cells,1.38 fold
same,"Relative activity, Heat Shock reporter",[5]; 5637 cells,19.47
same,"relative drug trigged pathway activity over the no-drug level, Heat Shock",[5]; Biu87 cells,4.54 fold
same,"Relative activity, Heat Shock reporter",[5]; Biu87 cells,8.60
same,"relative drug trigged pathway activity over the no-drug level, Heat Shock",[5]; H-bc cells,0.3 fold
same,"Relative activity, Heat Shock reporter",[5]; H-bc cells,1.12
same,"digitalized pathway activity, Heat Shock",[5]; SV-HUC-1 cells,0 (null (0) if neither of the above holds)
same,"relative drug trigged pathway activity over the no-drug level, Heat Shock",[5]; SV-HUC-1 cells,1.01 fold
same,"Relative activity, Heat Shock reporter",[5]; SV-HUC-1 cells,40.00
same,"digitalized pathway activity, Heat Shock",[5]; UM-UC-3 cells,0 (null (0) if neither of the above holds)
same,"Relative activity, Heat Shock reporter",[5]; UM-UC-3 cells,4.03
same,"relative drug trigged pathway activity over the no-drug level, Heat Shock",[5]; Um-Uc-3 cells,0.93 fold
